{
  "source": "patent US6927223B1",
  "about": "“Use of serotonin agents for adjunct therapy in the treatment of cancer” (priority 2000, dated 2005)",
  "key": {"B16BL6 melanoma": {"test_system": "B16BL6 melanoma", "assay": "Established subcutaneous B16BL6 melanoma in water- or ethanol-drinking C57BL6 mice: tumor growth, metastasis, body weight, intake, body fat", "settings": "for Perigonadal Fat (mg ± SE): necropsy; for Carcass Fat (% ± SE): weight of lipid/dry carcass weight x 100", "protocol": "In an effort to approximate the effect of SSRIs on melanomas in clinical situations, administration of the agents began after tumor growth was apparent.\nFourteen to 16 C57BL6 mice per group were inoculated s.c. with 1×10^6 B16BL6 melanoma cells. […] The test agent and saline control were injected daily subcutaneously (s.c.) into the gluteal region opposite from the site of tumor inoculation, approximately two hours before the dark cycle. […] At 21 days the animals were sacrificed.\nFemale C57/BL6 mice consumed either water or 20% w/v ethanol ad libitum for six weeks prior to inoculation with of melanoma cells. The mice were injected with 1×10^6 tumor cells subcutaneously (s.c.) into the dorsal hip.\nTwo weeks after inoculation, the animals were divided into four treatment groups: (1) water drinking or (2) ethanol drinking, both groups injected with saline control for seven days; (3) water drinking or (4) ethanol drinking. […] Tumor growth was measured with calipers on days 14, 16, 18, and 20. Mice were killed on day 21 and necropsied.\nPerigonadal and carcass fat were determined. Body weight, food consumption, and fluid-consumption were measured continually throughout the experiment.\nPerigonadal fat, a measure of body fat content, was removed at necropsy and weighed. Mice were then dehydrated at 60° C. until they reached constant weight. They were then pulverized in a Bel-Art Micro-Mill. The whole carcass was transferred to a soxhlet extractor and the lipid was extracted with chloroform:methanol (2:1) for 24 hours. The extraction cone containing the carcass was removed, air-dried to evaporate the chloroform and methanol, and then weighed. The difference in weight was the weight of carcass lipid. The percentage of carcass lipid was calculated as the weight of lipid/dry carcass weight×100."}, "B16BL6 melanoma cells": {"test_system": "B16BL6 melanoma cells", "settings": "stated jointly for B16BL6 and A375"}, "B16F10 melanoma cells": {"test_system": "B16F10 melanoma cells", "settings": "cited from earlier work; for tumor lung colonization (wet weight of tumor aggregates) versus saline controls: fluoxetine 12, 16, 20 or 40 mg/m^2, amitriptyline 30, 60 or 75 mg/m^2, from 24 hours after i.v. inoculation; for median survival: tumor cells injected i.v., all groups"}, "3T3 adipocytes": {"test_system": "3T3 adipocytes", "assay": "Lipid accumulation in adipocytes differentiated from NIH 3T3 fibroblasts, Oil Red-O staining", "type": "cell-based", "settings": "5 μM and 10 μM, 10 days", "protocol": "The relative absorbance was calculated as the ratio of absorbance of each treatment to the absorbance of the nondifferentiated (Ndiff) cells.\nAfter 10 days the lipid content was determined by staining the cells with Oil Red-O and determining the intensity of the red color in an uv spectrophotometer. Experiments were done in triplicate."}, "SKMel-28 cells": {"test_system": "SKMel-28 cells", "assay": "Viability of melanoma cells, crystal violet assay", "type": "cell-based, human", "settings": "SKMel-28, preliminary data from one study", "protocol": "(§1) Viability was assessed by the crystal violet assay. […] Values are mean±SE for three experiments. […] Values are for one experiment.\n(§2) A375 and SKMel-28 cells were seeded at a density of 20,000 cells in one ml DMEM+10% FBS per well in 24 well plates and cultured for 24 hours. […] The culture plates were removed and the medium from each well was discarded. The cells were fixed with acetic acid:methanol (1:3) for one hour at room temperature. The fixed cells were washed with 80% methanol and stained with crystal violet (0.5%) for one hour. Crystal violet dye is taken up proportionately depending upon the number of cells that are adhered to the plate. Excess dye is removed by washing plates in running distilled water. After the plates were dry, the dye was solubilized in 10% acetic acid. Aliquots of solubilized dye from each well were transferred to a 96 well plate and the absorbance of the color was measured at 585 nm. The effects were compared relative to untreated controls."}, "A375 melanoma cells [1]": {"test_system": "A375 melanoma cells", "settings": "stated jointly for B16BL6 and A375"}, "A375 melanoma cells [2]": {"test_system": "A375 melanoma cells", "protocol": "as §1, §2"}, "[3]": {"settings": "10 mg/kg/day injected i.v. or continuously infused subcutaneously via pump, mice; cited from earlier work"}, "metastatic melanoma": {"test_system": "metastatic melanoma", "settings": "single agent; cited from earlier work"}, "[4]": {"settings": "Ethanol-drinking mice (20% w/v), 10 mg/kg/day s.c. for 7 days"}, "[5]": {"settings": "Water-drinking mice, 10 mg/kg/day s.c. for 7 days"}},
  "note": "“Also recorded” adds a separate entry of the source.",
  "data": [
    {"smiles": "CNCCC(Oc1ccc(C(F)(F)F)cc1)c1ccccc1", "note": "(stereo not shown) [fluoxetine]", "values": [
      {"measurement": "tumor growth rate", "setting": "B16BL6 melanoma; 10 mg/kg/day s.c. for 7 days, irrespective of water or ethanol consumption", "result": "significantly decreased"},
      {"measurement": "decrease in wet weight of tumors at necropsy versus saline-injected mice", "setting": "B16BL6 melanoma; 10 mg/kg/day s.c. for 7 days, necropsy day 21", "result": "greater than 2 fold"},
      {"measurement": "Perigonadal Fat (mg ± SE)", "setting": "B16BL6 melanoma; [4]", "result": "192 ± 53", "unit": "mg"},
      {"measurement": "Carcass Fat (% ± SE)", "setting": "B16BL6 melanoma; [4]", "result": "31.7 ± 2.3", "unit": "%"},
      {"measurement": "Perigonadal Fat (mg ± SE)", "setting": "B16BL6 melanoma; [5]", "result": "53 ± 25", "unit": "mg"},
      {"measurement": "Carcass Fat (% ± SE)", "setting": "B16BL6 melanoma; [5]", "result": "25.8 ± 1.4", "unit": "%"},
      {"measurement": "tumor volume", "setting": "B16BL6 melanoma; daily s.c. injection from day 14 to day 21, water- and ethanol-consuming mice", "result": "decreased tumor volume"},
      {"measurement": "corrected body weight (total body weight minus tumor wet weight), test versus control animals", "setting": "B16BL6 melanoma; day 21", "result": "nearly identical"},
      {"measurement": "toxicity of the effective dose", "setting": "B16BL6 melanoma; mouse, in vivo", "result": "non toxic"},
      {"measurement": "number and frequency of metastases", "setting": "B16BL6 melanoma; subcutaneous B16BL6 tumors, 10 mg/kg/day s.c. for 7 days, 10 mg/kg/day", "result": "inhibit metastasis; also recorded: greatly reduced"},
      {"measurement": "food intake", "setting": "B16BL6 melanoma; water-drinking mice, experimental period", "result": "does not alter food intake"},
      {"measurement": "fluoxetine level that completely inhibited the incorporation of isotope", "setting": "B16BL6 melanoma cells", "result": "about 30 uM"},
      {"measurement": "tumor lung colonization (wet weight of tumor aggregates) versus saline controls", "setting": "B16F10 melanoma cells", "result": "increased tumor lung colonization"},
      {"measurement": "median survival", "setting": "B16F10 melanoma cells", "result": 17, "unit": "days"},
      {"measurement": "lipid content of differentiated adipocytes", "setting": "3T3 adipocytes", "result": "increases lipid content"},
      {"measurement": "major toxicity range", "setting": "SKMel-28 cells", "result": "8 to 16", "unit": "µM"},
      {"measurement": "fluoxetine level that completely inhibited the incorporation of isotope", "setting": "A375 melanoma cells [1]", "result": "about 30 uM"},
      {"measurement": "cell viability at 16 μM", "setting": "A375 melanoma cells [2]; A375, 16 μM", "result": "almost all the cells were dead"},
      {"measurement": "concentration at which drug toxicity is evident", "setting": "A375 melanoma cells [2]; A375, crystal violet", "result": 4, "unit": "µM"},
      {"measurement": "concentration range of more pronounced toxicity", "setting": "A375 melanoma cells [2]; A375, crystal violet", "result": "8 to 16", "unit": "µM"},
      {"measurement": "time within which toxicity is exerted", "setting": "A375 melanoma cells [2]; A375 and SKMel-28, crystal violet", "result": "≤ 24", "unit": "h"},
      {"measurement": "approximate serum level", "setting": "[3]", "result": "100 to 280", "unit": "ng/mL"}
    ]},
    {"smiles": "CN(C)/N=N/c1[nH]cnc1C(N)=O", "note": "[DTIC, dimethyltriazenoimidazole carboxymide]", "values": [
      {"measurement": "share of cases of metastatic melanoma with partial remission", "setting": "metastatic melanoma", "result": "about one-quarter"}
    ]},
    {"smiles": "CN(C)CCC=C1c2ccccc2CCc2ccccc21", "note": "[amitriptyline]", "values": [
      {"measurement": "tumor lung colonization (wet weight of tumor aggregates) versus saline controls", "setting": "B16F10 melanoma cells", "result": "increased tumor lung colonization"},
      {"measurement": "median survival", "setting": "B16F10 melanoma cells", "result": 17, "unit": "days"}
    ]}
  ]
}
